Eleven molecules from patent US20130172311A1, “Substituted heterocyclyl benzyl pyrazoles, and use thereof” (BAYER INTELLECTUAL PROPERTY GMBH, priority 2010, published 2013) can be followed below.

In general, IC50 refers to the concentration needed to halve the response being measured. A high value points to lower potency. As usually defined, the bioavailability is dose-corrected exposure relative to a reference, in per cent. By melting point is commonly meant the temperature, or range, at which the solid turns liquid.

Data set [1] relates to luciferase reporter under the control of an HIF-responsive sequence in HCT 116 cells. Description: HIF luciferase assay. The class given is cell-based. The settings on record: Homo sapiens; HCT 116 reporter cells, hypoxia chamber (1% O2), 24 h. How it is done: HCT 116 cells were stably transfected with a plasmid which contained a luciferase reporter under the control of an HIF-responsive sequence. These cells were sown in microtitre plates [20 000 cells/cavity in RPMI 1640 medium with 10% foetal calf serum (FCS) and 100 μg/ml of hygromycin]. They were incubated overnight under standard conditions (5% CO2, 21% O2, 37° C., moistened). The following morning the cells were incubated with different concentrations of the test substances (0-10 μmol/l) in a hypoxia chamber (1% O2). After 24 h, Bright Glo reagent (Promega, Wis., USA) was added in accordance with the manufacturer's instructions, and after 5 min the luminescence was measured. Cells which were incubated under normoxia served as background controls.

Data set [2] in a line: Pharmacokinetic parameters after peroral administration in rats. It is filed as in vivo. How it is done:
The substance to be examined was administered to animals (for example mice or rats) intravenously as a solution (for example in corresponding plasma with a small addition of DMSO or in a PEG/ethanol/water mixture), and peroral administration was effected as a solution (for example in Solutol/ethanol/water or PEG/ethanol/water mixtures) or as a suspension (e.g. in tylose), in each case via a gavage. After administration of the substance, blood was taken from the animals at fixed times. The blood was heparinized, then plasma was obtained therefrom by centrifugation. The substance was quantified analytically in the plasma via LC-MS/MS. From the plasma concentration/time plots determined in this way, using an internal standard and with the aid of a validated computer program, the pharmacokinetic parameters, such as AUC (area under the concentration/time curve), Cmax, (maximum plasma concentration), t1/2 (half life), VSS (distribution volume) and CL (clearance), and the absolute and relative bioavailability F and Frei (i.v./p.o. comparison or comparison of suspension to solution after p.o. administration), were calculated.
To determine the active ingredient release from a prodrug compound, the prodrug was administered either intravenously or perorally, as described above, and the concentrations both of the prodrug and of the active ingredient released were quantified in the processed plasma.
The substance to be examined was administered perorally to rats, in each case in amounts between 1 and 3 mg/kg as a solution in Solutol/ethanol/water (40:10:50 or 40:20:40). The kinetic parameters determined for Working Example 1 are shown below by way of example for the inventive compounds [AUCnorm=dose-normalized exposure (area under the concentration/time curve)]:
The second row in this table gives the pharmacokinetic parameters for Example 1, as obtained after peroral administration of the prodrug compound from Example 15 (1 mg/kg of crystalline substance as a tylose suspension in water).

Data set [3] in a line: pH-dependent hydrolysis stability. The class given is physicochemical. The settings on record: HPLC area %; for % Example 1 active ingredient: released from prodrug Example 15. As to the method:
0.3 mg of the test substance (prodrug) was weighed into a 2 ml HPLC vial, and 0.6 ml of acetonitrile or acetonitrile/DMSO mixture (with up to 20 percent by volume of DMSO) was added. To dissolve the substance, the sample vessel was placed into an ultrasound bath for approx. 10 seconds. Subsequently, 1.0 ml of the particular aqueous buffer solution was added (commercially available buffer solutions of pH 2, 4, 6.5, 8 and 10) and the sample was treated again in the ultrasound bath. Over a period of 24 hours at 37° C., 5 μl of the sample solution were analysed by HPLC every hour for its content of unchanged prodrug or active ingredient released therefrom by hydrolysis. Quantification was effected via the area percentages of the corresponding HPLC peaks.

The nature of data set [4]: Plasma stability in vitro, human plasma. It is filed as in vitro ADME. Conditions: 37°C. As to the method:
(§1) 1 mg of the test substance (prodrug) was weighed into a 2 ml HPLC vial, and 1.5 ml of DMSO and 1 ml of water were added. To dissolve the substance, the sample vessel was placed into an ultrasound bath for approx. 10 seconds. 0.5 ml of rat plasma or human plasma at 37° C. was added to 0.5 ml of this solution. The sample was agitated and approx. 10 μl were taken for a first analysis (time t0). […] The sample was kept at 37° C. over the test period. Characterization and quantification were effected by HPLC.

Data set [5] in a line: Plasma stability in vitro, rat plasma. The class given is in vitro ADME. Conditions: 37°C. How it is done: as §1

For `Cc1cc(-c2nc(-c3ccc(OC(F)(F)F)cc3)no2)nn1Cc1cccc(N2CC(O)C2)c1` [Example 1, 1-{3-[(5-Methyl-3-{3-[4-(trifluoromethoxy)phenyl]-1,2,4-oxadiazol-5-yl}-1H-pyrazol-1-yl)methyl]phenyl}azetidin-3-ol], the IC50 in data set [1] was determined as 0.7 nM. Moreover, in data set [2] (p.o., 1-3 mg/kg, solution in Solutol/ethanol/water), the “AUCnorm (dose-normalized exposure)” value is 0.43 kg·h/L. Also, the “AUCnorm of Example 1 after administration of prodrug Example 15” value in data set [2] (p.o., prodrug Example 15, 1 mg/kg crystalline substance as tylose suspension in water) turned out to be 0.35 kg·h/L. For the same molecule, the bioavailability in data set [2] (rat, plasma, po, 1-3 mg/kg, solution in Solutol/ethanol/water, read-out: F (bioavailability)) is 68%. Moreover, the “% Example 1 active ingredient” value in data set [3] (pH 2, 37°C, after 12 h) worked out at 6%; in data set [3] (pH 4, 37°C, after 12 h), 9%; in data set [3] (pH 6.5, 37°C, 0 h), 3%; in data set [3] (pH 6.5, 37°C, 2 h) it was 7%; in data set [3] (pH 6.5, 37°C, 4 h), 10%; in data set [3] (pH 6.5, 37°C, 6 h), 13%. The “% Example 1 active ingredient” value came to 22% in data set [3] (pH 6.5, 37°C, 12 h); 35% in data set [3] (pH 6.5, 37°C, 24 h); 30% in data set [3] (pH 8, 37°C, after 12 h); 78% in data set [3] (pH 10, 37°C, after 12 h).

In turn, `Cc1cc(-c2nc(-c3ccc(C4(C(F)(F)F)CC4)cc3)no2)nn1Cc1cccc(N2CC(O)C2)c1` [Example 2, 1-(3-{[5-Methyl-3-(3-{4-[1-(trifluoromethyl)cyclopropyl]phenyl}-1,2,4-oxadiazol-5-yl)-1H-pyrazol-1-yl]methyl}phenyl)azetidin-3-ol] yielded an IC50 in data set [1] of 0.6 nM.

`Cc1cc(-c2nc(-c3ccc(C(C)(C)C(F)(F)F)cc3)no2)nn1Cc1cccc(N2CC(O)C2)c1` [Example 3, 1-{3-[(5-Methyl-3-{3-[4-(1,1,1-trifluoro-2-methylpropan-2-yl)phenyl]-1,2,4-oxadiazol-5-yl}-1H-pyrazol-1-yl)methyl]phenyl}azetidin-3-ol] displayed an IC50 in data set [1] of 0.6 nM.

`Cc1cc(-c2nc(-c3ccc(OC(F)(F)F)cc3)no2)nn1Cc1cccc(N2CCC(O)CC2)c1` [Example 8, 1-{3-[(5-Methyl-3-{3-[4-(trifluoromethoxy)phenyl]-1,2,4-oxadiazol-5-yl}-1H-pyrazol-1-yl)methyl]phenyl}piperidin-4-ol] had an IC50 in data set [1] of 0.6 nM.

As to `Cc1cc(-c2nc(-c3ccc(C4(C(F)(F)F)CC4)cc3)no2)nn1Cc1cccc(N2CCC(O)CC2)c1` [Example 9, 1-(3-{[5-Methyl-3-(3-{4-[1-(trifluoromethyl)cyclopropyl]phenyl}-1,2,4-oxadiazol-5-yl)-1H-pyrazol-1-yl]methyl}phenyl)piperidin-4-ol], in data set [1], the half-maximal inhibitory concentration (IC50) amounted to 0.5 nM.

Molecule `Cc1cc(-c2nc(-c3ccc(C(C)(C)C(F)(F)F)cc3)no2)nn1Cc1cccc(N2CCC(O)CC2)c1` [Example 10, 1-{3-[(5-Methyl-3-{3-[4-(1,1,1-trifluoro-2-methylpropan-2-yl)phenyl]-1,2,4-oxadiazol-5-yl}-1H-pyrazol-1-yl)methyl]phenyl}piperidin-4-ol] had an IC50 in data set [1] of 0.4 nM.

Consider `Cc1cc(-c2nc(-c3ccc(OC(F)(F)F)cc3)no2)nn1Cc1cccc(N2CCC(C#N)CC2)c1` [Example 11, 1-{3-[(5-Methyl-3-{3-[4-(trifluoromethoxy)phenyl]-1,2,4-oxadiazol-5-yl}-1H-pyrazol-1-yl)methyl]phenyl}piperidine-4-carbonitrile], for which 0.4 nM corresponded to half-maximal inhibition in data set [1] (IC50).

In the case of `Cc1cc(-c2nc(-c3ccc(C4(C(F)(F)F)CC4)cc3)no2)nn1Cc1cccc(N2CCC(C#N)CC2)c1` [Example 12, 1-(3-{[5-Methyl-3-(3-{4-[1-(trifluoromethyl)cyclopropyl]phenyl}-1,2,4-oxadiazol-5-yl)-1H-pyrazol-1-yl]methyl}phenyl)piperidine-4-carbonitrile], the IC50 in data set [1] was determined as 0.3 nM.

In data set [1], `Cc1cc(-c2nc(-c3ccc(C(C)(C)C(F)(F)F)cc3)no2)nn1Cc1cccc(N2CCC(C#N)CC2)c1` [Example 13, 1-{3-[(5-Methyl-3-{3-[4-(1,1,1-trifluoro-2-methylpropan-2-yl)phenyl]-1,2,4-oxadiazol-5-yl}-1H-pyrazol-1-yl)methyl]phenyl}piperidine-4-carbonitrile] gave an IC50 of 0.3 nM.

`Cc1cc(-c2nc(-c3ccc(SC(F)(F)F)cc3)no2)nn1Cc1cccc(N2CCC(O)CC2)c1` [Example 14, 1-(3-{[5-Methyl-3-(3-{4-[(trifluoromethyl)sulphanyl]phenyl}-1,2,4-oxadiazol-5-yl)-1H-pyrazol-1-yl]methyl}phenyl)piperidin-4-ol] returned an IC50 in data set [1] of 0.5 nM.

`Cc1cc(-c2nc(-c3ccc(OC(F)(F)F)cc3)no2)nn1Cc1cccc(N2CC(OC(=O)CN(C)C)C2)c1` [Example 15, 1-{3-[(5-Methyl-3-{3-[4-(trifluoromethoxy)phenyl]-1,2,4-oxadiazol-5-yl}-1H-pyrazol-1-yl)methyl]phenyl}azetidin-3-yl N,N-dimethylglycinate] returned a melting point of 117 °C. The “% Example 15 prodrug” value in data set [4] (0 h) was 97%. The “% Example 15 prodrug” value in data set [4] (0.5 h) is recorded as 96%. For the same molecule, the “% Example 15 prodrug” value in data set [4] (1 h) is on record as 93%. Further, in data set [4] (1.5 h), the “% Example 15 prodrug” value turned out to be 91%. For the same molecule, the “% Example 15 prodrug” value in data set [4] (2 h) was 89%. Besides, the “% Example 15 prodrug” value in data set [4] (4 h) was 81%. The “prodrug compound in plasma” value in data set [2] (p.o., 1 mg/kg as tylose suspension, all times examined) is on record as “not detectable”. The “% Example 15 prodrug” value in data set [3] (pH 2, 37°C, after 12 h) was determined as 89%. Besides, in data set [3] (pH 4, 37°C, after 12 h), the “% Example 15 prodrug” value came to 89%. Moreover, in data set [3] (pH 6.5, 37°C, 0 h), the “% Example 15 prodrug” value came to 94%. For the same molecule, in data set [3] (pH 6.5, 37°C, 2 h), the “% Example 15 prodrug” value is given as 91%. Also, in data set [3] (pH 6.5, 37°C, 4 h), the “% Example 15 prodrug” value turned out to be 87%. Further, the “% Example 15 prodrug” value in data set [3] (pH 6.5, 37°C, 6 h) stood at 84%. In addition, in data set [3] (pH 6.5, 37°C, 12 h), the “% Example 15 prodrug” value is 73%. Moreover, the “% Example 15 prodrug” value in data set [3] (pH 6.5, 37°C, 24 h) is reported as 56%. Moreover, the “% Example 15 prodrug” value in data set [3] (pH 8, 37°C, after 12 h) is 64%. Further, the “% Example 15 prodrug” value in data set [3] (pH 10, 37°C, after 12 h) amounted to 0%. For the same molecule, in data set [5] (0 h), the “% Example 15 prodrug” value is given as 95%. Further, the “% Example 15 prodrug” value in data set [5] (0.5 h) is recorded as 87%. Further, in data set [5] (1 h), the “% Example 15 prodrug” value was found to be 80%. Besides, the “% Example 15 prodrug” value in data set [5] (1.5 h) is 72%. For the same molecule, in data set [5] (2 h), the “% Example 15 prodrug” value is 69%. The “% Example 15 prodrug” value in data set [5] (4 h) was found to be 52%.
